One assay deals with human GlyT1c transporter (Homo sapiens (Human), UniProt P48067). The experiment in a line: Radioligand binding assay using recombinant CHO cell membranes expressing human GlyT1. The following applies: human GlyT1c-expressing CHO cell membranes; read-out: radioligand binding Kiapp. The text has this: 2. Radioligand binding assays using recombinant CHO cell membranes expressing human GlyT1: […]

A further assay deals with human GlyT1c (Homo sapiens (Human), UniProt P48067). The experiment in a line: [3H]-Glycine uptake into recombinant CHO cells expressing human GlyT1. The following applies: hGlyT1c_5_CHO cells, 200 nM [3H]-glycine. It counts as cell-based. The method, boiled down: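 Recombinant CHO cells stably expressing hGlyT1c, grown 24 h to sub-confluency on scintillating plates, given inhibitor or vehicle plus 200 nM (final) [3H]-glycine in HBSS. Uptake counted continuously by solid-phase scintillation for up to 3 h; nonspecific uptake defined with 10 μM Org24598.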

Counter-ions that a name gives are not always drawn.

human GlyT1c transporter, sequence (P48067 whole entry): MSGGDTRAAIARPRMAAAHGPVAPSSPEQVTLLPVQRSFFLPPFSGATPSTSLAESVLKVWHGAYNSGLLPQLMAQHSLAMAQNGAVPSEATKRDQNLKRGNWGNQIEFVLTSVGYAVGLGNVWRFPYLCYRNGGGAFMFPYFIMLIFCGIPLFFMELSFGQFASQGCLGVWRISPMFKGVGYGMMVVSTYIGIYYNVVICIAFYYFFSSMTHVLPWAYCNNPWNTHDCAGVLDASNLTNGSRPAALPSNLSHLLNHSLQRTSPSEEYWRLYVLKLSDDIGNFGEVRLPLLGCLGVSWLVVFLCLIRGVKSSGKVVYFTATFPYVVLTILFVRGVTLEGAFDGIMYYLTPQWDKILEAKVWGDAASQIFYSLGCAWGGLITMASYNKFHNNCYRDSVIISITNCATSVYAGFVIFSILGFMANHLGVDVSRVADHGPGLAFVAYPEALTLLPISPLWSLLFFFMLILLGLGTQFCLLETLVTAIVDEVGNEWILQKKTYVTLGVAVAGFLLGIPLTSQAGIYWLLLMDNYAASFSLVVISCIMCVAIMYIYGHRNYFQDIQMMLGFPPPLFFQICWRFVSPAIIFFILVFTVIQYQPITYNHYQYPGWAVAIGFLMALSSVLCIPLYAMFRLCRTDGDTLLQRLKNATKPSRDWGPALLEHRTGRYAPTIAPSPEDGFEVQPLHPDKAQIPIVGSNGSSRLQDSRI
human GlyT1c, sequence (P48067 whole entry): as above

Take `Cc1ccc(S(=O)(=O)NCCOc2ccc3c(c2)C(Cc2ccc(Cl)cc2Cl)C(N)CC3)s1` (centres unmarked) [Example 73, 5-Methyl-thiophene-2-sulfonic acid {2-[7-amino-8-(2,4-dichloro-benzyl)-5,6,7,8-tetrahydronaphthalen-2-yloxy]-ethyl}-amide hydrochloride]: the Ki at human GlyT1c transporter is at most 1 µM. Moreover, the IC50 on human GlyT1c was at most 10 µM.

On to `Cn1cnc(S(=O)(=O)NCCOc2ccc3c(c2)C(Cc2ccc(Cl)c(Cl)c2)C(NC(=O)C(F)(F)F)CC3)c1` (centres unmarked) [Example 18, N-{1-(3,4-Dichloro-benzyl)-7-[2-(1-methyl-1H-imidazole-4-sulfonylamino)-ethoxy]-1,2,3,4-tetrahydro-naphthalen-2-yl}-2,2,2-trifluoro-acetamide], for which the Ki at human GlyT1c transporter was at most 0.01 µM. Also, at human GlyT1c, the IC50 is at most 0.1 µM.

Take `CCOC(=O)NC1CCc2ccc(OCCNC(=O)OC(C)(C)C)cc2C1Cc1ccc(Cl)c(Cl)c1` (centres unmarked) [Example 1, [7-(2-tert-Butoxycarbonylamino-ethoxy)-1-(3,4-dichloro-benzyl)-1,2,3,4-tetrahydro-naphthalen-2-yl]-carbamic acid ethyl ester]: at human GlyT1c transporter, the Ki was at most 10 µM. Besides, the IC50 on human GlyT1c was at most 1000 µM.

Consider `Cc1nc(C)c(S(=O)(=O)NCCOc2ccc3c(c2)C(Cc2cccc(Cl)c2)C(N)CC3)s1` (centres unmarked) [Example 57, 2,4-Dimethyl-thiazole-5-sulfonic acid {2-[7-amino-8-(3-chloro-benzyl)-5,6,7,8-tetrahydronaphthalen-2-yloxy]-ethyl}-amide], for which the Ki on human GlyT1c transporter is at most 1 µM. The 50% inhibitory concentration (IC50) on human GlyT1c is at most 10 µM.
